Results reported in patent publication US11377442B2, “Small molecule agonists and antagonists of NR2F6 activity” (ZANDER THERAPEUTICS, INC., priority 2016, dated 2022).
Like-named read-outs stand apart in the source and are kept apart here.

Tests used:
Format in all cases: cell-based
ERα [1] = target: T1, ERα (Homo sapiens, UniProt P03372); test: Counterscreening, Firefly signal with ERα transient transfection (Firefly_ERa)
T1 construct: expressed in transfected cells
T1 sequence (P03372 1-595): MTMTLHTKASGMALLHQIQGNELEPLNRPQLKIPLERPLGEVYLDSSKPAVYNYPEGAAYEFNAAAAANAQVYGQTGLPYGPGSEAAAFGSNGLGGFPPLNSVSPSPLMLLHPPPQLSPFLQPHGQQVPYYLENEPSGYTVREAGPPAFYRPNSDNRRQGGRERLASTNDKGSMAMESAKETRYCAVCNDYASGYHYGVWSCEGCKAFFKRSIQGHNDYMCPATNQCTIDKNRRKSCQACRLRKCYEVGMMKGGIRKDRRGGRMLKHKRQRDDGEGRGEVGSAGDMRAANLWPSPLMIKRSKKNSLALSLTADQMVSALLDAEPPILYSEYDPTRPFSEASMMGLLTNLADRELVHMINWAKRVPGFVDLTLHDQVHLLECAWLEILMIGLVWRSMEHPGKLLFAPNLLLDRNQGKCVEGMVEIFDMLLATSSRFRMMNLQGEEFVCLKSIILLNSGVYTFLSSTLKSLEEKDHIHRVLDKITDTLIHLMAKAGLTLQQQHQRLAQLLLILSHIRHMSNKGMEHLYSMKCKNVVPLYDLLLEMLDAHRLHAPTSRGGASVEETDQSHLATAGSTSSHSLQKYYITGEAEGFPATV

NR2F6 = target: T2, NR2F6 (Homo sapiens, UniProt P10588); test: NR2F6 agonist screening, Firefly signal cmpd/DMSO
T2 construct: expressed in transfected cells; also transient transfection
T2 sequence (P10588 1-404): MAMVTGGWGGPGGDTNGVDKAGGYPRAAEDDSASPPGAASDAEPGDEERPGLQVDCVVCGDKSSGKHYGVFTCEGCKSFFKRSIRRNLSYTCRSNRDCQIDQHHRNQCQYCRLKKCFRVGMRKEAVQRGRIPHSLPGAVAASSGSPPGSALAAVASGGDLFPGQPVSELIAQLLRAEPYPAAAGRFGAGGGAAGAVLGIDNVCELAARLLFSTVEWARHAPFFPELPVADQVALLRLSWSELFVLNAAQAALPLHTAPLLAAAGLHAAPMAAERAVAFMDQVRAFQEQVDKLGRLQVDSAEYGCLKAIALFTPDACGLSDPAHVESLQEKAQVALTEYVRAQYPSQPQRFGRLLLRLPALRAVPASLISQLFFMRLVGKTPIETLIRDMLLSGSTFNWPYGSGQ

Renilla = Renilla signal in NR2F6 agonist screening, cmpd/DMSO; details: for fold induction at 2 µM / fold induction at 10 µM / fold induction at 40 µM: Renilla, read-out: Renilla F4, cmpd/DMSO (mean)
Renilla_ERa = test: Renilla signal in ERα counterscreen (Renilla_ERa); details: for fold induction at 2 µM / fold induction at 10 µM / fold induction at 40 µM: read-out: Renilla ERalpha transient, cmpd/DMSO (mean)
ERα [2] = target: T1, ERα; test: Counterscreening, Firefly signal with ERα transient transfection (Firefly_ERa); details: 10 uM
Experimental: The methodology for screening candidate compounds as NR2F6 agonists was as follows: For primary screening, hit criteria was ACT %>DMSO control+5*SD (DSO control) at 10 μM, or any compound with S/B>2. For rescreening, hit criteria was ACT %>DMSO control+3*SD (DSO control) in each replicate at 10 μM. For counterscreening, hit criteria was mean ACT<DMSO control+3*SD (DMSO control) with ERα transient transfection in duplicate at 10 μM.

| SMILES | Firefly ERalpha transient, cmpd/DMSO (mean) (ERα [1]; 2 uM) | Firefly ERalpha transient, cmpd/DMSO (mean) (ERα [1]; 40 uM) | Firefly F4, cmpd/DMSO (mean) (NR2F6; 2 uM, clone F4) | Firefly F4, cmpd/DMSO (mean) (NR2F6; 10 uM, clone F4) | Firefly F4, cmpd/DMSO (mean) (NR2F6; 40 uM, clone F4) | Firefly ERalpha transient, cmpd/DMSO (mean) (ERα [2]) | Firefly ERalpha transient, cmpd/DMSO (mean) (ERα [1]; Table 15, 2 uM) | Firefly ERalpha transient, cmpd/DMSO (mean) (ERα [1]; Table 15, 40 uM) | Firefly F4, cmpd/DMSO (mean) (NR2F6; Table 15, 2 uM) | Firefly F4, cmpd/DMSO (mean) (NR2F6; Table 15, 10 uM) | Firefly F4, cmpd/DMSO (mean) (NR2F6; Table 15, 40 uM) | fold induction at 2 µM (Renilla; 2 uM, clone F4) | fold induction at 10 µM (Renilla; 10 uM, clone F4) | fold induction at 40 µM (Renilla; 40 uM, clone F4) | fold induction at 2 µM (Renilla_ERa; 2 uM) | fold induction at 10 µM (Renilla_ERa; 10 uM) | fold induction at 40 µM (Renilla_ERa; 40 uM) | fold induction at 2 µM (Renilla; Table 15, 2 uM) | fold induction at 10 µM (Renilla; Table 15, 10 uM) | fold induction at 40 µM (Renilla; Table 15, 40 uM) | further results |
| --- | --- | --- | --- | --- | --- | --- | --- | --- | --- | --- | --- | --- | --- | --- | --- | --- | --- | --- | --- | --- | --- |
| Cc1cc(C)nc(Nc2nc(-c3ccccc3)c(CC(=O)O)s2)n1 [Compound 29] | 1.2 | 2.2 | 0.9 | 1.4 | 1.5 | 1.7 |  |  |  |  |  | 0.8 | 0.9 | 0.8 | 1.1 | 1 | 1.1 |  |  |  |  |
| O=c1c(Cl)c(Cl)cnn1-c1ccccc1 [Compound 45] | 1.8 | 0.6 | 3.2 | 1.2 | 0.7 | 1.6 |  |  |  |  |  | 1.6 | 0.8 | 0.2 | 1.6 | 0.8 | 0.2 |  |  |  |  |
| CCCCCCNc1nc(OCC)nc(N2CCn3c(cccc3=O)C2)n1 [Compound 40] | 1.0 | 0.7 | 0.9 | 1.0 | 0.8 | 1.0 |  |  |  |  |  |  |  |  |  |  |  |  |  |  | Renilla F4, cmpd/DMSO (mean) (Renilla; 2 uM, clone F4): 1.1; Renilla F4, cmpd/DMSO (mean) (Renilla; 10 uM, clone F4): 1.3; Renilla F4, cmpd/DMSO (mean) (Renilla; 40 uM, clone F4): 1.0; Renilla ERalpha transient, cmpd/DMSO (mean) (Renilla_ERa; 2 uM): 1.2; Renilla ERalpha transient, cmpd/DMSO (mean) (Renilla_ERa; 10 uM): 1.2; Renilla ERalpha transient, cmpd/DMSO (mean) (Renilla_ERa; 40 uM): 1.1 |
| O=c1cccc2n1CC1CC2CN(c2nc(N3CCCC3)nc(N3CCCC3)n2)C1 (stereo not drawn) [Compound 26] | 1.0 | 1.1 | 1.0 | 1.1 | 1.3 | 1.3 |  |  |  |  |  | 1 | 0.7 | 0.7 | 0.9 | 1 | 1 |  |  |  |  |

The next lines start with results.

| Firefly ERalpha transient, cmpd/DMSO (mean) (ERα [1]; 2 uM) | Firefly ERalpha transient, cmpd/DMSO (mean) (ERα [1]; 40 uM) | Firefly F4, cmpd/DMSO (mean) (NR2F6; 2 uM, clone F4) | Firefly F4, cmpd/DMSO (mean) (NR2F6; 10 uM, clone F4) | Firefly F4, cmpd/DMSO (mean) (NR2F6; 40 uM, clone F4) | Firefly ERalpha transient, cmpd/DMSO (mean) (ERα [2]) | Firefly ERalpha transient, cmpd/DMSO (mean) (ERα [1]; Table 15, 2 uM) | Firefly ERalpha transient, cmpd/DMSO (mean) (ERα [1]; Table 15, 40 uM) | Firefly F4, cmpd/DMSO (mean) (NR2F6; Table 15, 2 uM) | Firefly F4, cmpd/DMSO (mean) (NR2F6; Table 15, 10 uM) | Firefly F4, cmpd/DMSO (mean) (NR2F6; Table 15, 40 uM) | SMILES | fold induction at 2 µM (Renilla; 2 uM, clone F4) | fold induction at 10 µM (Renilla; 10 uM, clone F4) | fold induction at 40 µM (Renilla; 40 uM, clone F4) | fold induction at 2 µM (Renilla_ERa; 2 uM) | fold induction at 10 µM (Renilla_ERa; 10 uM) | fold induction at 40 µM (Renilla_ERa; 40 uM) | fold induction at 2 µM (Renilla; Table 15, 2 uM) | fold induction at 10 µM (Renilla; Table 15, 10 uM) | fold induction at 40 µM (Renilla; Table 15, 40 uM) | further results |
| --- | --- | --- | --- | --- | --- | --- | --- | --- | --- | --- | --- | --- | --- | --- | --- | --- | --- | --- | --- | --- | --- |
| 0.9 | 1.6 | 1.0 | 1.1 | 1.7 | 1.4 |  |  |  |  |  | COc1ccc2nc(C(F)(F)F)c(C#N)c(N3CCN(C)CC3)c2c1 [Compound Z41] | 0.7 | 0.6 | 0.6 | 1 | 1.1 | 0.8 |  |  |  |  |
| 1.5 | 0.5 | 0.9 | 0.5 | 0.7 | 0.3 |  |  |  |  |  | N#Cc1c(C(F)(F)F)nc2ccc(Cl)cc2c1NC1CC1 [Compound Z48] | 0.8 | 0.6 | 0.6 | 1.1 | 0.8 | 0.6 |  |  |  |  |
| 0.9 | 0.5 | 0.5 | 0.8 | 0.6 | 0.5 |  |  |  |  |  | COc1ccc2nc(C(F)(F)F)c(C#N)c(NCc3ccc(Cl)cc3)c2c1 [Compound Z38] | 0.7 | 0.6 | 0.4 | 0.9 | 0.6 | 0.6 |  |  |  |  |
| 1.4 | 1.6 | 1.3 | 0.8 | 0.8 | 0.9 |  |  |  |  |  | N#Cc1c(C(F)(F)F)nc2ccc(Cl)cc2c1N1CCOCC1 [Compound Z43] | 1 | 0.9 | 0.7 | 1 | 1 | 0.9 |  |  |  |  |
|  |  |  |  |  |  | 0.9 | 1.5 | 1.1 | 1.0 | 1.0 | CCOC(=O)c1cnc2c(C)cc(C)cc2c1NCCCO [Compound Z70] |  |  |  |  |  |  | 0.8 | 1.3 | 1.3 | fold induction at 2 µM (Renilla_ERa; Table 15, 2 uM): 1.1; fold induction at 10 µM (Renilla_ERa; Table 15, 10 uM): 1; fold induction at 40 µM (Renilla_ERa; Table 15, 40 uM): 1.2; Firefly ERalpha transient, cmpd/DMSO (mean) (ERα [2]; Table 15): 1.1 |
| 0.9 | 0.6 | 0.6 | 0.8 | 0.6 | 0.8 |  |  |  |  |  | COC(=O)CNc1c(C#N)c(C(F)(F)F)nc2ccc(OC)cc12 [Compound Z46] | 0.9 | 0.8 | 0.6 | 0.9 | 1 | 1 |  |  |  |  |
|  |  |  |  |  |  | 1.5 | 0.8 | 1.5 | 1.2 | 0.8 | COc1cccc(-c2noc(Cn3ncc(Cl)cc3=O)n2)c1 [Compound Z4] |  |  |  |  |  |  | 1.1 | 1.6 | 1.4 | fold induction at 2 µM (Renilla_ERa; Table 15, 2 uM): 1.2; fold induction at 10 µM (Renilla_ERa; Table 15, 10 uM): 1.1; fold induction at 40 µM (Renilla_ERa; Table 15, 40 uM): 0.8; Firefly ERalpha transient, cmpd/DMSO (mean) (ERα [2]; Table 15): 1.4 |
|  |  |  |  |  |  | 1.3 | 1.5 | 0.9 | 1.2 | 1.0 | COc1ccc(-c2noc(Cn3ncc4ccccc4c3=O)n2)cc1 [Compound Z7] |  |  |  |  |  |  | 1.3 | 1.1 | 1.1 | fold induction at 2 µM (Renilla_ERa; Table 15, 2 uM): 1.1; fold induction at 10 µM (Renilla_ERa; Table 15, 10 uM): 1.1; fold induction at 40 µM (Renilla_ERa; Table 15, 40 uM): 1; Firefly ERalpha transient, cmpd/DMSO (mean) (ERα [2]; Table 15): 2.0 |
|  |  |  |  |  |  | 1.0 | 1.0 | 1.2 | 0.8 | 1.2 | CC(=O)Nc1ccc(Br)c2nonc12 [Compound Z14] |  |  |  |  |  |  | 0.8 | 0.9 | 1 | fold induction at 2 µM (Renilla_ERa; Table 15, 2 uM): 1.1; fold induction at 10 µM (Renilla_ERa; Table 15, 10 uM): 1.1; fold induction at 40 µM (Renilla_ERa; Table 15, 40 uM): 1; Firefly ERalpha transient, cmpd/DMSO (mean) (ERα [2]; Table 15): 1.2 |
